Test results: the supplement of paper PMC10627819

Columns and labels:
S. aureus Newman [1] = assay: fitness (endpoint OD595 vs no drug) (fraction); higher = more growth
How it was run: (§1)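 Fitness compares growth at the stationary-phase transition with the robust mean of no-drug control wells, as a ratio of optical densities. The ratio is capped at 1. Wells of 384-well plates held 30 µl, or 55 µl for S. pneumoniae, inoculated at OD595 0.01. Readings at OD595 every 30 min for 14 h at 37 °C were corrected against the first reading.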

S. aureus DSM 20231 [2] = assay: as above
How it was run: as §1

B. subtilis 168 = assay: Bliss interaction score (quartile over a dose matrix) (fitness difference); higher = more antagonism (negative = synergy)
How it was run: (§2)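 The Bliss score is observed minus expected fitness, where expected fitness is the product of the single-drug fitness values inferred from the combination data. Fitness is the OD595 at the onset of stationary phase over the plate's robust no-drug mean, capped at 1. Scores are summarised by quartiles over technical, biological and donor/recipient replicates.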

S. pneumoniae D39V [3] = assay: as above
How it was run: as §2

S. aureus Newman [4] = assay: as above
How it was run: as §2

S. aureus DSM 20231 [5] = assay: as above
How it was run: as §2

S. pneumoniae D39V [6] = assay: fitness (endpoint OD595 vs no drug) (fraction); higher = more growth
How it was run: as §1
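For Bliss interaction score (quartile over a dose matrix) in this document: first quartile when negative (synergy) and third quartile when positive (antagonism).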
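For fitness (endpoint OD595 vs no drug) in this document: OD595 on entry to stationary phase over no-drug wells; at most 1.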

Cc1ncc([N+](=O)[O-])n1CCO [Metronidazole] + CCCCCCCCCC(=O)N[C@@H]1[C@H]([C@@H]([C@H](O[C@H]1OC2=C3C=C4C=C2OC5=C(C=C(C=C5)[C@H]([C@H]6C(=O)N[C@@H](C7=C(C(=CC(=C7)O)OC8[C@H]([C@H]([C@@H]([C@H](O8)CO)O)O)O)C9=C(C=CC(=C9)[C@H](C(=O)N6)NC(=O)[C@@H]4NC(=O)[C@@H]1C2=CC(=CC(=C2)OC2=C(C=CC(=C2)[C@H](C(=O)N[C@H](CC2=CC(=C(O3)C=C2)Cl)C(=O)N1)N)O)O)O)C(=O)O)O[C@H]1[C@@H]([C@H]([C@@H]([C@H](O1)CO)O)O)NC(=O)C)Cl)CO)O)O [Teicoplanin]
fitness, main component drawn
Conditions	first compound 0.625 µg/mL	first compound 1.25 µg/mL	first compound 2.5 µg/mL
S. aureus DSM 20231 [2], partner 0.1562 µg/mL	0.967	≥ 1	≥ 1
S. aureus DSM 20231 [2], partner 0.3125 µg/mL	≥ 1	≥ 1	≥ 1
S. aureus DSM 20231 [2], partner 0.625 µg/mL	≥ 1	≥ 1	≥ 1
S. aureus Newman [1], partner 0.1562 µg/mL	0.976	0.979	–
S. aureus Newman [1], partner 0.3125 µg/mL	0.988	0.973	0.933
S. aureus Newman [1], partner 0.625 µg/mL	0.927	0.925	0.752

fitness, S. aureus Newman [1], one replicate, main component drawn
Conditions	first compound 0.625 µg/mL	first compound 0.781 µg/mL	first compound 1.25 µg/mL	first compound 1.562 µg/mL	first compound 2.5 µg/mL	first compound 3.124 µg/mL
partner 0.1562 µg/mL	–	≥ 1	–	≥ 1	–	≥ 1
partner 0.3125 µg/mL	–	≥ 1	–	0.961	–	0.989
partner 0.62 µg/mL	0.82	–	0.795	–	0.81	–
partner 0.625 µg/mL	–	0.845	–	0.805	–	0.836
partner 1.24 µg/mL	0.745	–	0.774	–	0.76	–
partner 2.48 µg/mL	0.492	–	0.505	–	0.486	–

main component drawn
Conditions	Bliss interaction score
B. subtilis 168	0.0689
S. aureus DSM 20231 [5]	0.0308
S. aureus Newman [4]	0.0581
S. pneumoniae D39V [3]	0.126

Cc1ncc([N+](=O)[O-])n1CCO [Metronidazole] + Cn1nnc(-c2ccc(-c3ccc(N4C[C@H](CO)OC4=O)cc3F)cn2)n1 [Tedizolid]
fitness
Conditions	partner 0.03125 µg/mL	partner 0.0625 µg/mL	partner 0.125 µg/mL	partner 0.25 µg/mL	partner 0.5 µg/mL
S. aureus DSM 20231 [2], first compound 0.625 µg/mL	–	0.966	0.842	–	–
S. aureus DSM 20231 [2], first compound 1.25 µg/mL	–	0.91	0.839	0.552	–
S. aureus DSM 20231 [2], first compound 2.5 µg/mL	–	0.982	0.851	–	–
S. aureus Newman [1], first compound 0.625 µg/mL	–	0.985	0.875	0.521	–
S. aureus Newman [1], first compound 0.781 µg/mL	–	0.954	0.861	–	–
S. aureus Newman [1], first compound 1.25 µg/mL	–	0.948	0.89	0.509	–
S. aureus Newman [1], first compound 1.562 µg/mL	–	0.951	0.88	–	–
S. aureus Newman [1], first compound 2.5 µg/mL	–	0.93	0.874	–	–
S. aureus Newman [1], first compound 3.124 µg/mL	–	0.957	0.866	–	–
S. pneumoniae D39V [6], first compound 1.073 µg/mL	–	–	0.768	0.856	–
S. pneumoniae D39V [6], first compound 1.25 µg/mL	0.959	0.98	0.831	–	–
S. pneumoniae D39V [6], first compound 2.145 µg/mL	–	–	0.807	0.845	0.255
S. pneumoniae D39V [6], first compound 2.5 µg/mL	0.974	0.998	0.85	–	–
S. pneumoniae D39V [6], first compound 4.29 µg/mL	–	–	0.814	0.838	0.259
S. pneumoniae D39V [6], first compound 5 µg/mL	0.958	0.971	0.85	–	–

Conditions	Bliss interaction score
B. subtilis 168	-0.0352
S. aureus DSM 20231 [5]	0.0997
S. aureus Newman [4]	0.105
S. pneumoniae D39V [3]	-0.0886

COc1ccc(C[C@H](N)C(=O)N[C@H]2[C@@H](O)[C@H](n3cnc4c(N(C)C)ncnc43)O[C@@H]2CO)cc1 [Puromycin] + CN[C@H](CC(C)C)C(=O)N[C@H]1C(=O)N[C@@H](CC(N)=O)C(=O)N[C@H]2C(=O)N[C@H]3C(=O)N[C@H](C(=O)N[C@H](C(=O)O)c4cc(O)cc(O)c4-c4cc3ccc4O)[C@H](O)c3ccc(c(Cl)c3)Oc3cc2cc(c3O[C@@H]2O[C@H](CO)[C@@H](O)[C@H](O)[C@H]2O[C@H]2C[C@](C)(N)[C@H](O)[C@H](C)O2)Oc2ccc(cc2Cl)[C@H]1O [Vancomycin]
fitness
Conditions	S. aureus DSM 20231 [2]	S. aureus Newman [1]	S. pneumoniae D39V [6]
first compound 0.39 µg/mL, partner 0.1875 µg/mL	≥ 1	≥ 1	–
first compound 0.39 µg/mL, partner 0.375 µg/mL	0.986	0.996	–
first compound 0.39 µg/mL, partner 0.75 µg/mL	≥ 1	≥ 1	–
first compound 0.78 µg/mL, partner 0.1875 µg/mL	≥ 1	≥ 1	–
first compound 0.78 µg/mL, partner 0.375 µg/mL	≥ 1	0.994	–
first compound 0.78 µg/mL, partner 0.75 µg/mL	≥ 1	0.979	–
first compound 1 µg/mL, partner 0.03125 µg/mL	–	–	0.999
first compound 1 µg/mL, partner 0.0625 µg/mL	–	–	0.989
first compound 1 µg/mL, partner 0.125 µg/mL	–	–	0.8
first compound 1.56 µg/mL, partner 0.1875 µg/mL	≥ 1	≥ 1	–
first compound 1.56 µg/mL, partner 0.375 µg/mL	≥ 1	0.978	–
first compound 1.56 µg/mL, partner 0.75 µg/mL	≥ 1	0.999	–
first compound 2 µg/mL, partner 0.03125 µg/mL	–	–	0.985
first compound 2 µg/mL, partner 0.0625 µg/mL	–	–	0.969
first compound 2 µg/mL, partner 0.125 µg/mL	–	–	0.849
first compound 4 µg/mL, partner 0.03125 µg/mL	–	–	0.808
first compound 4 µg/mL, partner 0.0625 µg/mL	–	–	0.822

one replicate
Conditions	fitness
S. aureus DSM 20231 [2], first compound 3.12 µg/mL, partner 0.1875 µg/mL	≥ 1
S. aureus DSM 20231 [2], first compound 3.12 µg/mL, partner 0.375 µg/mL	0.915
S. aureus DSM 20231 [2], first compound 3.12 µg/mL, partner 0.75 µg/mL	0.922
S. aureus DSM 20231 [2], first compound 6.24 µg/mL, partner 0.1875 µg/mL	0.642
S. aureus DSM 20231 [2], first compound 6.24 µg/mL, partner 0.375 µg/mL	0.737
S. aureus DSM 20231 [2], first compound 6.24 µg/mL, partner 0.75 µg/mL	0.716
S. pneumoniae D39V [6], first compound 1 µg/mL, partner 0.25 µg/mL	0.088
S. pneumoniae D39V [6], first compound 1 µg/mL, partner 0.5 µg/mL	0.0805
S. pneumoniae D39V [6], first compound 2 µg/mL, partner 0.25 µg/mL	0.223
S. pneumoniae D39V [6], first compound 2 µg/mL, partner 0.5 µg/mL	0.125
S. pneumoniae D39V [6], first compound 4 µg/mL, partner 0.25 µg/mL	0.141
S. pneumoniae D39V [6], first compound 4 µg/mL, partner 0.5 µg/mL	0.121

Conditions	Bliss interaction score
B. subtilis 168	-0.0411
S. aureus DSM 20231 [5]	0.0659
S. aureus Newman [4]	0.0575
S. pneumoniae D39V [3]	-0.0711
